# Source: paper PMC5218480 (PLoS ONE, 2017)
# Test system: MV-4-11 cells
# Test: Gene expression microarray analysis (Affymetrix PrimeView) and GSEA
# Type: cell-based, human
# Parameters: RFU PODN (11730768_x_at) / Fold change /veh PODN (11730768_x_at) / RFU LINC00158 (11744669_a_at) / Fold change /veh LINC00158 (11744669_a_at) / RFU DUSP10 (11751237_a_at) / Fold change /veh DUSP10 (11751237_a_at) / RFU ID3 (11757404_x_at) / Fold change /veh ID3 (11757404_x_at) / RFU PLEKHG5 (11737974_s_at) / Fold change /veh PLEKHG5 (11737974_s_at) / RFU LRRC4B (11730491_at) / Fold change /veh LRRC4B (11730491_at) / RFU GIMAP4 (11747438_a_at) / Fold change /veh GIMAP4 (11747438_a_at) / RFU KRT8 (11758183_x_at) / Fold change /veh KRT8 (11758183_x_at) / RFU CNN1 (11734310_a_at) / Fold change /veh CNN1 (11734310_a_at) / RFU VPS37D (11726825_at) / Fold change /veh VPS37D (11726825_at) / RFU C10orf10 (11716522_x_at) / Fold change /veh C10orf10 (11716522_x_at) / RFU KIR2DL2 /// KIR2DL4 /// KIR2DL5A /// KIR2DL5B /// KIR2DS1 /// KIR2DS2 /// KIR2DS3 /// KIR2DS4 /// KIR3DL3 /// KIR3DL3 /// KIR3DS1 (11738374_at) / Fold change /veh KIR2DL2 /// KIR2DL4 /// KIR2DL5A /// KIR2DL5B /// KIR2DS1 /// KIR2DS2 /// KIR2DS3 /// KIR2DS4 /// KIR3DL3 /// KIR3DL3 /// KIR3DS1 (11738374_at) / RFU C1QL1 (11718748_at) / Fold change /veh C1QL1 (11718748_at) / RFU TMPRSS4 (11747572_a_at) / Fold change /veh TMPRSS4 (11747572_a_at) / RFU HAMP (11756126_x_at) / Fold change /veh HAMP (11756126_x_at) / RFU RNFT2 (11725882_a_at) / Fold change /veh RNFT2 (11725882_a_at) / RFU NR4A2 (11747474_a_at) / Fold change /veh NR4A2 (11747474_a_at) / RFU ABCC12 (11746883_a_at) / Fold change /veh ABCC12 (11746883_a_at) / RFU TMEM136 (11760407_x_at) / Fold change /veh TMEM136 (11760407_x_at) / RFU CLDN22 /// WWC2 (11732394_at) / Fold change /veh CLDN22 /// WWC2 (11732394_at) / RFU HLA-DPB1 (11760878_x_at) / Fold change /veh HLA-DPB1 (11760878_x_at) / RFU SPINT1 (11716480_a_at) / Fold change /veh SPINT1 (11716480_a_at) / RFU GAP43 (11754022_s_at) / Fold change /veh GAP43 (11754022_s_at) / RFU A4GNT (11735810_at) / Fold change /veh A4GNT (11735810_at) / RFU PRB3 (11715151_x_at) / Fold change /veh PRB3 (11715151_x_at) / RFU TUBB4B (11761932_at) / Fold change /veh TUBB4B (11761932_at) / RFU CAPN14 (11732068_a_at) / Fold change /veh CAPN14 (11732068_a_at) / RFU TMCC2 (11721928_a_at) / Fold change /veh TMCC2 (11721928_a_at) / RFU IRGQ (11745062_a_at) / Fold change /veh IRGQ (11745062_a_at) / RFU FAM174B (11720279_a_at) / Fold change /veh FAM174B (11720279_a_at) / RFU TMPRSS4 (11748680_a_at) / Fold change /veh TMPRSS4 (11748680_a_at) / RFU FAM212B (11763350_a_at) / Fold change /veh FAM212B (11763350_a_at) / RFU PLEKHG5 (11743358_a_at) / Fold change /veh PLEKHG5 (11743358_a_at) / RFU ZSCAN30 (11745921_a_at) / Fold change /veh ZSCAN30 (11745921_a_at) / RFU CMKLR1 (11741424_a_at) / Fold change /veh CMKLR1 (11741424_a_at) / RFU LOC101060620 /// MAPK8IP1 (11723275_at) / Fold change /veh LOC101060620 /// MAPK8IP1 (11723275_at) / RFU SPTSSB (11747773_x_at) / Fold change /veh SPTSSB (11747773_x_at) / RFU PRSS12 (11739890_at) / Fold change /veh PRSS12 (11739890_at) / RFU BIN1 (11741810_x_at) / Fold change /veh BIN1 (11741810_x_at) / RFU WNT11 (11732464_a_at) / Fold change /veh WNT11 (11732464_a_at) / RFU C10orf10 (11716521_a_at) / Fold change /veh C10orf10 (11716521_a_at) / RFU C5orf56 (11738089_at) / Fold change /veh C5orf56 (11738089_at) / RFU CYB561 (11721691_x_at) / Fold change /veh CYB561 (11721691_x_at) / RFU ANKRD19P (11752326_a_at) / Fold change /veh ANKRD19P (11752326_a_at) / RFU OR2T12 /// OR2T33 /// OR2T8 (11738714_s_at) / Fold change /veh OR2T12 /// OR2T33 /// OR2T8 (11738714_s_at) / RFU VCAN (11748164_a_at) / Fold change /veh VCAN (11748164_a_at) / RFU JSRP1 (11732532_at) / Fold change /veh JSRP1 (11732532_at) / RFU KRTAP10-11 (11738290_x_at) / Fold change /veh KRTAP10-11 (11738290_x_at) / RFU MYO3A (11730013_a_at) / Fold change /veh MYO3A (11730013_a_at) / RFU EBF3 (11725865_a_at) / Fold change /veh EBF3 (11725865_a_at) / RFU CAMK2N1 (11719241_x_at) / Fold change /veh CAMK2N1 (11719241_x_at) / RFU C5orf56 (11738088_a_at) / Fold change /veh C5orf56 (11738088_a_at) / RFU OLFML3 (11715873_a_at) / Fold change /veh OLFML3 (11715873_a_at) / RFU LOC100653217 /// NTM (11731650_a_at) / Fold change /veh LOC100653217 /// NTM (11731650_a_at) / RFU MAPK11 (11762145_a_at) / Fold change /veh MAPK11 (11762145_a_at) / RFU FIZ1 (11724087_x_at) / Fold change /veh FIZ1 (11724087_x_at) / RFU OASL (11726364_x_at) / Fold change /veh OASL (11726364_x_at) / RFU SOX15 (11748057_x_at) / Fold change /veh SOX15 (11748057_x_at) / RFU CD79A (11719716_a_at) / Fold change /veh CD79A (11719716_a_at) / RFU HIST1H1D (11736915_at) / Fold change /veh HIST1H1D (11736915_at) / RFU CASKIN2 (11723855_a_at) / Fold change /veh CASKIN2 (11723855_a_at) / RFU LOC730098 (11760151_x_at) / Fold change /veh LOC730098 (11760151_x_at) / RFU OR4N2 (11742367_at) / Fold change /veh OR4N2 (11742367_at) / RFU PRRT2 (11749266_a_at) / Fold change /veh PRRT2 (11749266_a_at) / RFU SNX32 (11753110_a_at) / Fold change /veh SNX32 (11753110_a_at) / RFU CDHR5 (11726645_a_at) / Fold change /veh CDHR5 (11726645_a_at) / RFU RCAN1 (11760418_a_at) / Fold change /veh RCAN1 (11760418_a_at) / RFU FAM167A (11723789_a_at) / Fold change /veh FAM167A (11723789_a_at) / RFU FAM26E (11764081_at) / Fold change /veh FAM26E (11764081_at) / RFU ISYNA1 (11749810_s_at) / Fold change /veh ISYNA1 (11749810_s_at) / RFU ACY1 (11761880_at) / Fold change /veh ACY1 (11761880_at) / RFU 11764098_at / Fold change /veh 11764098_at / RFU SAMD14 (11745864_x_at) / Fold change /veh SAMD14 (11745864_x_at) / RFU NPB (11741838_a_at) / Fold change /veh NPB (11741838_a_at) / RFU TMPRSS6 (11731388_a_at) / Fold change /veh TMPRSS6 (11731388_a_at) / RFU KRTAP10-2 (11738614_at) / Fold change /veh KRTAP10-2 (11738614_at) / RFU ARHGAP8 /// PRR5-ARHGAP8 (11727945_x_at) / Fold change /veh ARHGAP8 /// PRR5-ARHGAP8 (11727945_x_at) / RFU KRTAP5-7 /// NADSYN1 (11734609_at) / Fold change /veh KRTAP5-7 /// NADSYN1 (11734609_at) / RFU RASL12 (11751679_a_at) / Fold change /veh RASL12 (11751679_a_at) / RFU CDKN2B (11736163_a_at) / Fold change /veh CDKN2B (11736163_a_at) / RFU PRF1 (11729649_at) / Fold change /veh PRF1 (11729649_at) / RFU, ZNF638 /// ZNF638-IT1 / Fold change vs veh, ZNF638 /// ZNF638-IT1 / RFU, PANK3 / Fold change vs veh, PANK3 / RFU, SH3YL1 / Fold change vs veh, SH3YL1 / RFU, ZEB2 / Fold change vs veh, ZEB2 / RFU, NRIP1 / Fold change vs veh, NRIP1 / RFU, PTTG1IP / Fold change vs veh, PTTG1IP / RFU, CAPN2 / Fold change vs veh, CAPN2 / RFU, MED14 / Fold change vs veh, MED14 / RFU, SNORA58 / Fold change vs veh, SNORA58 / RFU, C1orf63 / Fold change vs veh, C1orf63 / RFU, LRRFIP1 / Fold change vs veh, LRRFIP1 / RFU, NDUFAF7 / Fold change vs veh, NDUFAF7 / RFU, SLC12A2 / Fold change vs veh, SLC12A2 / RFU, IBTK / Fold change vs veh, IBTK / RFU, ESF1 / Fold change vs veh, ESF1 / Fold change vs veh, TMEM50B / RFU, TAOK1 / Fold change vs veh, TAOK1 / RFU, ACBD3 / Fold change vs veh, ACBD3 / RFU, TMA16 / Fold change vs veh, TMA16 / RFU, RWDD3 / Fold change vs veh, RWDD3 / RFU, BCAT1 / Fold change vs veh, BCAT1 / RFU, EDEM3 / Fold change vs veh, EDEM3 / RFU, TMEM33 / Fold change vs veh, TMEM33 / RFU, WDR75 / Fold change vs veh, WDR75 / RFU, AHCTF1 / Fold change vs veh, AHCTF1 / RFU, TFRC / Fold change vs veh, TFRC / RFU, ZDHHC17 / Fold change vs veh, ZDHHC17 / RFU, NOM1 / Fold change vs veh, NOM1 / RFU, ARL8B / Fold change vs veh, ARL8B / RFU, ZBTB11 / Fold change vs veh, ZBTB11 / RFU, TAMM41 / Fold change vs veh, TAMM41 / RFU, KIAA1704 /// LOC100996395 / Fold change vs veh, KIAA1704 /// LOC100996395 / RFU, ING1 / Fold change vs veh, ING1 / RFU, TRMT61B / Fold change vs veh, TRMT61B / RFU, FUBP3 / Fold change vs veh, FUBP3 / RFU, TP53 / Fold change vs veh, TP53 / RFU, TNKS2 / Fold change vs veh, TNKS2 / RFU, ZFP14 / Fold change vs veh, ZFP14 / RFU, ACTR2 / Fold change vs veh, ACTR2 / RFU, PPP3R1 / Fold change vs veh, PPP3R1 / RFU, PIK3R1 / Fold change vs veh, PIK3R1 / RFU, HNRNPA1 / Fold change vs veh, HNRNPA1 / RFU, RNF170 / Fold change vs veh, RNF170 / RFU, ZNF28 / Fold change vs veh, ZNF28 / RFU, RNGTT / Fold change vs veh, RNGTT / RFU, OGT / Fold change vs veh, OGT / RFU, BRD1 / Fold change vs veh, BRD1 / RFU, MARS / Fold change vs veh, MARS / RFU, ZNF655 / Fold change vs veh, ZNF655 / RFU, FAHD1 / Fold change vs veh, FAHD1 / RFU, BDP1 / Fold change vs veh, BDP1 / RFU, LRRCC1 / Fold change vs veh, LRRCC1 / RFU, ARID1A / Fold change vs veh, ARID1A / RFU, ZNF146 / Fold change vs veh, ZNF146 / RFU, ZNF330 / Fold change vs veh, ZNF330 / RFU, GPN3 / Fold change vs veh, GPN3 / RFU, C9orf123 / Fold change vs veh, C9orf123 / RFU, N4BP2L2 / Fold change vs veh, N4BP2L2 / RFU, ARFIP1 / Fold change vs veh, ARFIP1 / RFU, FAM179B / Fold change vs veh, FAM179B / RFU, BCL10 / Fold change vs veh, BCL10 / RFU, UHRF1BP1L / Fold change vs veh, UHRF1BP1L / RFU, BET1 / Fold change vs veh, BET1 / RFU, CNOT2 / Fold change vs veh, CNOT2 / RFU, ZNF268 / Fold change vs veh, ZNF268 / Fold change vs veh, ZNF507 / RFU, DGCR2 / Fold change vs veh, DGCR2 / RFU, WDSUB1 / Fold change vs veh, WDSUB1 / Fold change vs veh, HSP90B1 /// MIR3652 / RFU, ADSS / Fold change vs veh, ADSS / RFU, GK / Fold change vs veh, GK / RFU, ZNF148 / Fold change vs veh, ZNF148 / RFU, TAF9 / Fold change vs veh, TAF9 / RFU, SLC1A5 / Fold change vs veh, SLC1A5 / RFU, SLMO2 / Fold change vs veh, SLMO2 / RFU, ABCC4 / Fold change vs veh, ABCC4 / RFU, LOC101060439 /// RAP1B / Fold change vs veh, LOC101060439 /// RAP1B / RFU, RFX7 / Fold change vs veh, RFX7 / RFU, GTPBP10 / Fold change vs veh, GTPBP10 / RFU, CNEP1R1 / Fold change vs veh, CNEP1R1 / RFU, BIVM-ERCC5 /// ERCC5 / Fold change vs veh, BIVM-ERCC5 /// ERCC5 / RFU, ILF3 / Fold change vs veh, ILF3 / RFU 11762660_at / Fold change /veh 11762660_at / RFU VCAN (11757783_s_at) / Fold change /veh VCAN (11757783_s_at) / RFU DDX43 (11728927_at) / Fold change /veh DDX43 (11728927_at) / RFU KRT8 (11758188_x_at) / Fold change /veh KRT8 (11758188_x_at) / RFU NKD1 (11759106_at) / Fold change /veh NKD1 (11759106_at) / RFU SRD5A1 (11742802_a_at) / Fold change /veh SRD5A1 (11742802_a_at) / RFU TPSAB1 /// TPSB2 (11721975_s_at) / Fold change /veh TPSAB1 /// TPSB2 (11721975_s_at) / RFU GSTM3 (11746129_a_at) / Fold change /veh GSTM3 (11746129_a_at) / RFU IL23R (11737362_x_at) / Fold change /veh IL23R (11737362_x_at) / RFU TMEM51 (11727254_a_at) / Fold change /veh TMEM51 (11727254_a_at) / RFU PIWIL2 (11732686_x_at) / Fold change /veh PIWIL2 (11732686_x_at) / RFU ORM1 (11744905_x_at) / Fold change /veh ORM1 (11744905_x_at) / RFU CCDC152 (11743942_at) / Fold change /veh CCDC152 (11743942_at) / RFU ECM1 (11717891_a_at) / Fold change /veh ECM1 (11717891_a_at) / RFU IL23R (11748794_a_at) / Fold change /veh IL23R (11748794_a_at) / RFU TNFAIP8L3 (11732012_x_at) / Fold change /veh TNFAIP8L3 (11732012_x_at) / RFU MBOAT4 (11741988_at) / Fold change /veh MBOAT4 (11741988_at) / RFU 11764193_at / Fold change /veh 11764193_at / RFU TMEM53 (11763286_at) / Fold change /veh TMEM53 (11763286_at) / RFU MAGEB2 (11727129_at) / Fold change /veh MAGEB2 (11727129_at) / RFU TMEM200A (11744735_a_at) / Fold change /veh TMEM200A (11744735_a_at) / RFU CCDC152 (11751479_a_at) / Fold change /veh CCDC152 (11751479_a_at) / RFU FAM211A (11726209_a_at) / Fold change /veh FAM211A (11726209_a_at) / RFU RGS16 (11746705_a_at) / Fold change /veh RGS16 (11746705_a_at) / RFU VCAN (11755009_s_at) / Fold change /veh VCAN (11755009_s_at) / RFU RHOB (11743442_s_at) / Fold change /veh RHOB (11743442_s_at) / RFU RGS16 (11720943_a_at) / Fold change /veh RGS16 (11720943_a_at) / RFU RGS16 (11720944_at) / Fold change /veh RGS16 (11720944_at) / RFU, VPS4B / Fold change vs veh, VPS4B / RFU, CREB1 / Fold change vs veh, CREB1 / RFU, DNAJC13 / Fold change vs veh, DNAJC13 / RFU, GNAQ / Fold change vs veh, GNAQ / RFU, CDK5R1 / Fold change vs veh, CDK5R1 / RFU, ZRANB3 / Fold change vs veh, ZRANB3 / RFU, CUL4A / Fold change vs veh, CUL4A / RFU, CCNY / Fold change vs veh, CCNY / RFU, UFL1 / Fold change vs veh, UFL1 / RFU, COG3 / Fold change vs veh, COG3 / RFU, DIAPH2 / Fold change vs veh, DIAPH2 / RFU, SKA2 / Fold change vs veh, SKA2 / RFU, AFF3 / Fold change vs veh, AFF3 / RFU, LMF1 / Fold change vs veh, LMF1 / RFU, IPO11 / Fold change vs veh, IPO11 / RFU, DFFB / Fold change vs veh, DFFB / RFU, FOXP1 / Fold change vs veh, FOXP1 / RFU, CARD8 / Fold change vs veh, CARD8 / RFU, STRN3 / Fold change vs veh, STRN3 / RFU, ADK / Fold change vs veh, ADK / RFU, RASSF2 / Fold change vs veh, RASSF2 / RFU, WIPF1 / Fold change vs veh, WIPF1 / RFU, LARP1B / Fold change vs veh, LARP1B / RFU, RASA1 / Fold change vs veh, RASA1 / RFU, RB1 / Fold change vs veh, RB1 / RFU, PPFIA1 / Fold change vs veh, PPFIA1 / RFU, MAT2A / Fold change vs veh, MAT2A / RFU, CCT5 / Fold change vs veh, CCT5 / RFU, WDR92 / Fold change vs veh, WDR92 / RFU, CUX1 / Fold change vs veh, CUX1 / RFU, TTC7A / Fold change vs veh, TTC7A / RFU, TMEM135 / Fold change vs veh, TMEM135 / RFU, DEPTOR / Fold change vs veh, DEPTOR / RFU, CPM / Fold change vs veh, CPM / RFU, DNAJB6 / Fold change vs veh, DNAJB6 / RFU, CACNA2D3 / Fold change vs veh, CACNA2D3 / RFU, DTX4 / Fold change vs veh, DTX4 / RFU, TFCP2 / Fold change vs veh, TFCP2 / RFU, GMCL1 /// GMCL1P1 / Fold change vs veh, GMCL1 /// GMCL1P1 / RFU, AEBP2 / Fold change vs veh, AEBP2 / RFU, SNHG1 /// SNORD22 /// SNORD25 /// SNORD26 /// SNORD27 /// SNORD28 /// SNORD29 /// SNORD31 / Fold change vs veh, SNHG1 /// SNORD22 /// SNORD25 /// SNORD26 /// SNORD27 /// SNORD28 /// SNORD29 /// SNORD31 / Fold change (Aza/veh), C12orf56 (ProbeSet 11735607_a_at) / Fold change (ACY-1035/veh), C12orf56 (ProbeSet 11735607_a_at) / Fold change (Aza/veh), FGFR1OP (ProbeSet 11751329_s_at) / Fold change (ACY-1035/veh), FGFR1OP (ProbeSet 11751329_s_at) / Fold change (Aza/veh), VPS36 (ProbeSet 11739960_a_at) / Fold change (ACY-1035/veh), VPS36 (ProbeSet 11739960_a_at) / RFU SYPL1 (11715823_x_at) / Fold change /veh SYPL1 (11715823_x_at) / RFU IGFBP7 (11715501_s_at) / Fold change /veh IGFBP7 (11715501_s_at) / RFU REEP3 (11722064_at) / Fold change /veh REEP3 (11722064_at) / RFU IGLL1 (11728026_x_at) / Fold change /veh IGLL1 (11728026_x_at): dose or concentration left out as unconfirmed
# Conditions: ProbeSet 11722302_a_at; LIST B
compound,measurement,value
Nc1ccc(-c2cccs2)cc1NC(=O)c1ccc2c(c1)cc(C1CC1)n2CCN1CCOCC1 [ACY-1035],"Fold change vs veh, LRRFIP1",0.98
